Results taken from patent US11572373B2, “Maytansinoid-based drug delivery systems” (LADRX CORPORATION, priority 2017, dated 2023).

Test system: cancer cell lines (LXFL 529, RKO, SW-620, CAL-27, LXFL 1674L, MDA-MB 468, SK-OV-3, PAXF 1657, MCF7, COLO 205, MDA-MB 231, BT-474, Hep G2)
Experiment: In vitro cytotoxicity in different cell lines using the CellTiter-Blue Cell Viability Assay
Type: cell-based, human
Conditions: geometric mean over the n cell lines tested, 96 h treatment, CellTiter-Blue; read-out: Geomean IC50

| SMILES | IC50 [nM] |
| --- | --- |
| COc1cc2cc(c1Cl)N(C)C(=O)C[C@H](OC(=O)[C@H](C)N(C)C(=O)CCS)[C@]1(C)O[C@H]1[C@H](C)[C@@H]1C[C@@](O)(NC(=O)O1)[C@H](OC)/C=C/C=C(\C)C2 [DM1, reference compound] | 3.22 |
| COc1cc2cc(c1Cl)N(C)C(=O)C[C@H](OC(=O)[C@H](C)N(C)C(=O)CCSSC)[C@]1(C)O[C@H]1[C@H](C)[C@@H]1C[C@@](O)(NC(=O)O1)[C@H](OC)/C=C/C=C(\C)C2 [DM1-SMe, reference compound] | 1.3 |
